The text below walks through data of patent publication US8309586B2, “Glucokinase activators and pharmaceutical compositions containing the same as an active ingredient” (LG Life Sciences Ltd., priority 2007, dated 2012).

Assay [1] has as its system Glucokinase known as hexokinase IV (human GK isoform 1, pancreas form and human GK isoform 2, liver form). Nature of the assay: Glucokinase enzymatic activity assay (G6PDH-coupled, NADH absorbance at 340 nm). The format is biochemical. To be noted: 5 mM glucose, 1 mM ATP, 37 nM GK, 10 min at room temperature. The gist of the method:
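His-tagged human GK isoform 1 (pancreas) or 2 (liver), E. coli-expressed and Ni-purified, 37 nM, with 5 mM glucose, 1 mM ATP, 1 mM NAD and G6PDH in 25 mM Hepes/KCl, 2 mM MgCl2, 1 mM DTT. Ran 10 min at room temperature, read as NADH at 340 nm. AC1.5 is the compound concentration giving 1.5-fold activity.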

For another assay, the system named is male C57BL/6 mice. As to the kind of experiment: Blood glucose lowering abilities after single oral administration in male C57BL/6 mouse. The format is in vivo. To be noted: 30 mg/kg single oral dose, fed ad libitum. As for the experimental part:
The glucokinase activators according to the present invention were orally administered in a single dose in the amount of 30 mg/kg body weight to male C57BL/6 mice for 24 h. The media were selected depending on their solubilities from distilled water, pH 1.2 HCl buffer solution, 0.5% methyl cellulose distilled water solution, 10% Gelucire/pH 1.2 HCl buffer solution (1/1). The glucokinase activators were dissolved in the selected media to the medium volume of 0.1 ml/10 g body weight on the basis of the body weight measured on the day of experiment.
Blood glucose was measured by cutting the tail vein before 1 h (time=−1) from the measurement of blood glucose, collecting blood from the tail vein at immediately before the administration of the glucokinase activator (time=0), and at 1, 2, 4, 8, 12, 24 h after administration, loading on the automatic glucometer (Accu-Chek® Active, Roche, USA), dropping 5 μl of the blood to a yellow pad of the Accu-Chek® Active glucose strip, and recording the measured value.
Mice involved in the experiment were divided into groups (n=10, in the case of media group n=4) on one day before the experiment so that each group has uniform average and standard deviation for blood glucose after 4 hour fasting. Mice were fed ad libitum.
The blood glucose lowering abilities in % of the representative compounds with respect to the 100% of media control were shown in the following Table 2.

As to `Cc1cc(NC2CCCC2)c2[nH]c(C3=N[C@H](CC(=O)O)CS3)cc2c1` [Example 61, [(R)-2-(7-cyclopentylamino-5-methyl-1H-indol-2-yl)-4,5-dihydro-thiazol-4-yl]-acetic acid], the “AC1.5 (the compound concentration at which the enzymatic activity is increased by 1.5 times)” value in assay [1] is 11 nM. For the same molecule, in the assay on male C57BL/6 mice (medium: distilled water), the “Hypoglycemic ability (% medium): blood glucose AUC for 24 h with respect to 100% of media control” value (“Hypoglycemic ability (% medium)” for short) is 54%.

In the case of `CCOc1cc(NC2CCCC2)c2[nH]c(C3=N[C@H](CC(=O)O)CS3)cc2c1` [Example 52, [(R)-2-(7-cyclopentylamino-5-ethoxy-1H-indol-2-yl)-4,5-dihydro-thiazol-4-yl]acetic acid], the “AC1.5 (the compound concentration at which the enzymatic activity is increased by 1.5 times)” value in assay [1] is recorded as 20 nM. Moreover, the “Hypoglycemic ability (% medium)” value in the assay on male C57BL/6 mice (medium: distilled water) is 62%.

For `Clc1cc(NC2CCCC2)c2[nH]c(C3=N[C@H](CCN4CCNCC4)CS3)cc2c1` [Example 96, {5-chloro-2-[(R)-4-(2-piperazin-1-yl-ethyl)-4,5-dihydro-thiazol-2-yl]-1H-indol-7-yl}-cyclopentyl-amine], in assay [1], the “AC1.5 (the compound concentration at which the enzymatic activity is increased by 1.5 times)” value is on record as 5 nM. The “Hypoglycemic ability (% medium)” value in the assay with male C57BL/6 mice (medium: distilled water) amounted to 81%.

Turning to `O=C(O)C[C@@H]1CSC(c2cc3cc(Oc4ccccc4)cc(NC4CCCC4)c3[nH]2)=N1` [Example 54, [(R)-2-(7-cyclopentylamino-5-phenoxy-1H-indol-2-yl)-4,5-dihydro-thiazol-4-yl]-acetic acid], the “AC1.5 (the compound concentration at which the enzymatic activity is increased by 1.5 times)” value in assay [1] is given as 18 nM. Further, the “Hypoglycemic ability (% medium)” value in the assay on male C57BL/6 mice (medium: distilled water) was 52%.

`CCOC(=O)C[C@@H]1CSC(c2cc3cc(F)cc(NC4CCCC4)c3[nH]2)=N1` [Example 38, [(R)-2-(7-cyclopentylamino-5-fluoro-1H-indol-2-yl)-4,5-dihydro-thiazol-4-yl]acetic acid ethyl ester]: the “AC1.5 (the compound concentration at which the enzymatic activity is increased by 1.5 times)” value in assay [1] was found to be 18 nM. Moreover, the “Hypoglycemic ability (% medium)” value in the assay with male C57BL/6 mice (medium: 0.5% methyl cellulose distilled water solution) was determined as 71%.
